Earlier results, collected in patent publication US20250319037A1, “METHODS OF DELIVERING THERAPEUTIC AGENTS, AND LIPID COMPOSITIONS” (FUJIFILM Corporation, priority 2022, published 2025).

Conditions: Non-patent documents 11 and 12

## CC(C)CCC[C@@H](C)[C@H]1CC[C@H]2[C@@H]3CC=C4C[C@@H](OC(=O)NCCN(C)C)CC[C@]4(C)[C@H]3CC[C@]12C [DC-cholesterol]
  pKa of the tertiary amine group: 7.8
